These results are taken from ChEMBL document CHEMBL3507680, “University of Dundee, Gates Library screen for HepG2 cell viability”.

This series is described as follows: Human HepG2 cell viability assay in 384 well format. It is filed as toxicity, cell-based. On the set-up: dose 125 nL, time 70.5 hour; concentration not given beside the values. Conditions: HepG2 cells, read-out: Inhibition.
Take `CN(C)CCCn1ccc(-c2cccc(-c3cncnc3)c2)n1`: the cytotoxicity at 70.5 h is -9.25%.

Regarding `Cn1cc(Cl)cc1C(=O)N1CCC2(CCCN(CC3CC3)C2=O)C1` (stereo not drawn), the cytotoxicity at 70.5 h was 24.1%.

For `CCc1noc(CN(CC)C(=O)C2CC(=O)N(Cc3ccncc3)C2)n1` (stereo not drawn), the cytotoxicity at 70.5 h is 35.2%.

As to `CC(C)c1cc(N2CCC[C@H](N)C2)n2nccc2n1`, the cytotoxicity at 70.5 h is -4.66%.

Take `Cc1ccc(C)c(OCc2cc(C(=O)N(C)Cc3cnn(C)c3)no2)c1`: the cytotoxicity at 70.5 h is -8.7%.

In the case of `CC(c1ccon1)N(C)C(=O)C1CCN(C(=O)C2CCC2)CC1` (stereo not drawn), the cytotoxicity at 70.5 h amounted to 25.3%.

`COc1cc(C(=O)N2Cc3cnc(C(C)(C)C)nc3C2)ccn1`: the cytotoxicity at 70.5 h is -2.74%.

With `Cc1nc(N2CCOc3ccc(CO)cc3C2)c2nc(C)oc2n1`, the cytotoxicity at 70.5 h is -1.34%.

Turning to `O=C(NCCSc1cnn[nH]1)c1c[nH]nc1C1CCCCC1`, the cytotoxicity at 70.5 h is 1.5%.

As to `COc1cccc(CN2CC3(CCNCC3)CCC2=O)c1OC`, the cytotoxicity at 70.5 h came to 0.619%.

As to `O=C(c1cncc(NCC2COc3ccccc3C2)n1)N1CCCC1` (stereo not drawn), the cytotoxicity at 70.5 h is 14.9%.

`CCn1ncnc1C1CC(=O)NCc2nc(N3CCCC3)sc21` (stereo not drawn): the cytotoxicity at 70.5 h was -21.6%.

Consider `Cc1ccc(OC2(C(=O)O)CCN(C(=O)c3cc(C)oc3C)CC2)cn1`, for which the cytotoxicity at 70.5 h was found to be 4.69%.

On to `CC(c1ccc(F)cc1)n1ccnc1-c1cc2n(n1)CCCNC2` (stereo not drawn), for which the cytotoxicity at 70.5 h was -6.66%.

For `CSCCC1c2nc[nH]c2CCN1Cc1[nH]c2ccc(F)cc2c1C` (stereo not drawn), the cytotoxicity at 70.5 h stood at 10.9%.

Regarding `CN(Cc1csc(-c2cccs2)n1)CC(O)CO` (stereo not drawn), the cytotoxicity at 70.5 h was 18.7%.

With `COCCCN1CCC(c2nc3c([nH]2)CC(C)(C)CNC3=O)C1` (stereo not drawn), the cytotoxicity at 70.5 h was -5.24%.

In the case of `Cc1c(C(=O)NCC2CCN(Cc3ccco3)C2)[nH]c2ccccc12` (stereo not drawn), the cytotoxicity at 70.5 h was -5.18%.

For the compound `CSc1ccccc1C(=O)N1C[C@H]2CC[C@@H]1CN(C(=O)C1CCC1)C2`, the cytotoxicity at 70.5 h was -4.19%.

As for `COc1ccc(OCc2nc(C(=O)N3CCC(NC(C)=O)C3)co2)cc1` (stereo not drawn), the cytotoxicity at 70.5 h was -1.19%.

For `Cc1nccn1-c1ccc(NC(=O)C2CCCN2Cc2c[nH]cn2)cc1` (stereo not drawn), the cytotoxicity at 70.5 h came out at 14.9%.

On to `O=C(NCCc1[nH]nc2c1CCCC2)C1CCCN(Cc2ccco2)C1` (stereo not drawn), for which the cytotoxicity at 70.5 h was -2.55%.

Take `CN(C)C[C@@H]1CN(C(=O)CCC2CCCC2)C[C@@H]1CO`: the cytotoxicity at 70.5 h was found to be 20.2%.

In the case of `CC(C)CN1CCc2[nH]cnc2C12CCN(C(=O)c1cc[nH]n1)CC2`, the cytotoxicity at 70.5 h is -5.86%.

Regarding `Cc1ncsc1C(=O)N1CCCC(CO)(CC2CC2)C1` (stereo not drawn), the cytotoxicity at 70.5 h was -7.6%.

As to `Cc1ccnc(C(Nc2nccc(-c3ccc(C)nc3C)n2)C2CC2)c1` (stereo not drawn), the cytotoxicity at 70.5 h is -6.77%.

As for `COc1cccc(OC2CN(C(=O)c3ccnc(OC)c3)C2)c1`, the cytotoxicity at 70.5 h was -21%.

In the case of `CC(NCc1cc(O)c2cccc(F)c2n1)c1ccccc1O` (stereo not drawn), the cytotoxicity at 70.5 h was -10.4%.

As for `O=C1CCC2(CCN(Cc3ccc(F)cc3Cl)CC2)CN1CCO`, the cytotoxicity at 70.5 h is 12.9%.

Take `C[C@@H]1CN(c2cc(N3CCC(O)CC3)ncn2)C[C@@]1(O)C1CCC1`: the cytotoxicity at 70.5 h came to 35.1%.

On to `Cc1cccnc1N1CCN(Cc2cc(O)c3cccc(F)c3n2)CC1`, for which the cytotoxicity at 70.5 h was -0.745%.

As for `CCN1CCC(CNc2nccc(C)n2)(N(C)C)CC1`, the cytotoxicity at 70.5 h was -3.2%.

As for `CSCCC1c2nc[nH]c2CCN1Cc1cncn1C` (stereo not drawn), the cytotoxicity at 70.5 h was determined as 33.9%.

In the case of `CN(Cc1csc(-c2cccs2)n1)Cc1ncccc1C(=O)O`, the cytotoxicity at 70.5 h was -12.2%.

On to `CN(CCCc1nccn1C)C(=O)C1COc2ccccc2C1` (stereo not drawn), for which the cytotoxicity at 70.5 h is -2.53%.

Turning to `CN(CCN1CCCCCC1)Cc1cnc(N)nc1`, the cytotoxicity at 70.5 h is -6%.

Regarding `COc1ccc(Cc2ncc3c(n2)CN(C(=O)C(C)(C)OC)C3)cc1`, the cytotoxicity at 70.5 h is -6.62%.

With `COC1CCN(c2cc(C(C)C)nc3ccnn23)C1` (stereo not drawn), the cytotoxicity at 70.5 h is 5.73%.

Take `Cc1cc(CNC(=O)c2cn(CCC3CCCCN3)nn2)on1` (stereo not drawn): the cytotoxicity at 70.5 h was -5.72%.

With `COCc1ccc(C(=O)N2CCC(Oc3ccccc3)(C(=O)O)CC2)o1`, the cytotoxicity at 70.5 h is 17.3%.

`OCCNc1cc(N2CCC(n3cc(C4CCCC4)nn3)CC2)ncn1`: the cytotoxicity at 70.5 h was -10.7%.

As to `Cc1c(C(=O)NCCC2CN(C)CCO2)n(C)c2c(C)cccc12` (stereo not drawn), the cytotoxicity at 70.5 h is -27%.

As to `NC(=O)CCN1CCc2onc(-c3ccccc3F)c2C1`, the cytotoxicity at 70.5 h is -11.6%.

On to `CCN(Cc1noc(C)n1)C(=O)C(c1ccc(C)cc1)N(C)C` (stereo not drawn), for which the cytotoxicity at 70.5 h is -0.785%.

As for `CCSCCNC(=O)c1ccc(S(=O)(=O)N2C[C@@H]3C[C@H]2CN3)cc1`, the cytotoxicity at 70.5 h is -4.95%.

As for `Cc1nc(N2CCOc3ccc(CO)cc3C2)c2c(C)noc2n1`, the cytotoxicity at 70.5 h is -2.39%.

As to `CCCN1CC2(CCN(C)CC2)CC1C(=O)NCCn1cc(C)cn1` (stereo not drawn), the cytotoxicity at 70.5 h is -4.52%.

Take `CCN(C)c1ccc(C(=O)NCCCc2ccccn2)cn1`: the cytotoxicity at 70.5 h is -4.13%.

As to `Cc1oc(-c2cccc(F)c2F)nc1CN(CCO)C(C)C`, the cytotoxicity at 70.5 h was -8.53%.

In the case of `c1ccc2c(c1)CCN(c1nc(-c3ccncc3)nc3c1CCNC3)C2`, the cytotoxicity at 70.5 h worked out at 23.9%.

On to `Cc1nc2cc(C(=O)N3C[C@@H](C(=O)O)[C@H](c4ccncc4)C3)ccc2[nH]1`, for which the cytotoxicity at 70.5 h was -3.63%.

Take `Cc1nc[nH]c1-c1nccn1CCCN(C)C`: the cytotoxicity at 70.5 h was 6.24%.

On to `CS(=O)(=O)CC(=O)N(CCN1CCOCC1)Cc1ccco1`, for which the cytotoxicity at 70.5 h was 22.7%.

In the case of `COc1cccc(C2CCN2C(=O)c2cnccn2)c1` (stereo not drawn), the cytotoxicity at 70.5 h is -2.61%.

As to `CCCN1C[C@H]2CC[C@@H]1CN(Cc1ccc(-n3cccn3)cc1)C2`, the cytotoxicity at 70.5 h turned out to be 23.7%.

As for `O=C(C1CNCCN1C(=O)CCc1cccnc1)N1CCOCC1` (stereo not drawn), the cytotoxicity at 70.5 h was determined as 3.27%.

Consider `CCCNc1ncc(CN2CCC3(CC2)CNC(=O)C3)cn1`, for which the cytotoxicity at 70.5 h worked out at 12.6%.

As for `Cc1nc(NCc2scnc2-c2ccccc2)cc(C2CCNCC2)n1`, the cytotoxicity at 70.5 h is -6.26%.

For `O=C1NCC2(CCCN(C(=O)c3ccc4c(c3)CCCO4)CC2)O1` (stereo not drawn), the cytotoxicity at 70.5 h was found to be 4.55%.

`CC(C)C(NC(N)=O)C(=O)N1CCN(c2ccccc2Cl)C(=O)C1` (stereo not drawn): the cytotoxicity at 70.5 h is -9.59%.

As to `Cc1cccc(C(C(=O)N(C)Cc2ccon2)N(C)C)c1` (stereo not drawn), the cytotoxicity at 70.5 h was -0.0384%.

For `CCc1cc(CN(C)C(=O)c2cnon2)on1`, the cytotoxicity at 70.5 h was -2.96%.

As to `CC(=O)c1ccn(CC(=O)Nc2nn(CC3CC3)c3ccccc23)n1`, the cytotoxicity at 70.5 h is -10.7%.

Consider `COCCCNCc1cc(O)c2cc(C)cc(C)c2n1`, for which the cytotoxicity at 70.5 h was -5.24%.

For the compound `COc1cccc(CN2CCN(CC(C)C)C(=O)C2C)c1O` (stereo not drawn), the cytotoxicity at 70.5 h worked out at 0.611%.

Consider `Cc1nc(N(C)C2CCCCC2)ncc1C(C)NC(=O)c1cscn1` (stereo not drawn), for which the cytotoxicity at 70.5 h turned out to be 1.66%.

For the compound `Cc1ccnc(NCCSc2nccn2C)n1`, the cytotoxicity at 70.5 h was -5.33%.

As for `CC(Cn1cncn1)NC1CCN(Cc2cccc(O)c2)CC1` (stereo not drawn), the cytotoxicity at 70.5 h was -2.81%.

Turning to `COCCN(C)C[C@@H]1CN(Cc2ccnc3ccccc23)C[C@@H]1CO`, the cytotoxicity at 70.5 h is -16.1%.

On to `COc1ccc(C(=O)C2CCCN(c3cc(C#N)ccn3)C2)cc1OC` (stereo not drawn), for which the cytotoxicity at 70.5 h was -5.09%.

On to `CN(C)CCN1CC(C(=O)N(C)Cc2cc3cc(F)ccc3[nH]2)CC1=O` (stereo not drawn), for which the cytotoxicity at 70.5 h was -7.58%.

For `O=C1N(C2CCCCC2)CCCC12CCN(S(=O)(=O)c1cccnc1)C2` (stereo not drawn), the cytotoxicity at 70.5 h is -5.02%.

For the compound `O=C(C1CC(=O)N(C2CC2)C1)N1CCN(CCn2cccc2)CC1` (stereo not drawn), the cytotoxicity at 70.5 h was -1.53%.

Take `COCC(=O)NCc1cccnc1-n1cnc2ccccc21`: the cytotoxicity at 70.5 h was -0.396%.

In the case of `Cc1nc[nH]c1CN1CCCn2nc(CN3CCC(F)(F)CC3)cc2C1`, the cytotoxicity at 70.5 h was -9.44%.

For the compound `COC(=O)C(C)NCc1ccc2[nH]c(C)c(C)c2c1` (stereo not drawn), the cytotoxicity at 70.5 h is -0.287%.

For `CCC(NC1CSCCSC1)c1ccc(S(C)(=O)=O)cc1` (stereo not drawn), the cytotoxicity at 70.5 h was -14.2%.

Take `Cc1ccc(CN2CCN(Cc3ccc(N(C)C)nc3)CC2=O)cc1C`: the cytotoxicity at 70.5 h is -1.36%.

As for `O=C(NCCc1nc(C2CC2)no1)[C@H]1CNC[C@H](C(=O)N2CCCC2)C1`, the cytotoxicity at 70.5 h was -1.74%.

Consider `CSc1cccc(CN(C)C(=O)c2ccc(C3CCCNC3)cc2)c1` (stereo not drawn), for which the cytotoxicity at 70.5 h is -7.25%.

For the compound `CCOC(=O)C1(Cc2ccccc2)CCCN(Cc2nccn2CC)C1` (stereo not drawn), the cytotoxicity at 70.5 h was -0.0866%.

Regarding `OC1(CN2CCCC2)COCCN(c2cc(C(F)(F)F)ccn2)C1` (stereo not drawn), the cytotoxicity at 70.5 h is -7.83%.

As to `Cc1ccc(F)cc1CC(=O)N(CCN1CCOCC1)Cc1ccco1`, the cytotoxicity at 70.5 h is -6.95%.

On to `Cc1ccc(NC(=O)CNC(C)Cc2ccsc2)cc1F` (stereo not drawn), for which the cytotoxicity at 70.5 h is -8.47%.

Consider `CN1CCCC1CCn1ccnc1-c1nc(-c2ccccc2)no1` (stereo not drawn), for which the cytotoxicity at 70.5 h stood at 16.5%.

In the case of `CCn1cc(CN2CCCN(C3Cc4ccccc4C3)CC2)c(C)n1`, the cytotoxicity at 70.5 h was determined as 24.3%.

Regarding `O=C(O)c1cccc(C2CCCN(S(=O)(=O)N3CCOCC3)C2)c1` (stereo not drawn), the cytotoxicity at 70.5 h is -7.39%.

Regarding `Cc1ccc(CN2CCN(c3cncc(N(C)C)n3)CC2=O)cc1C`, the cytotoxicity at 70.5 h is -7.53%.

Take `CNC(=O)c1nc(CN2CCOC(CCCC(C)C)C2)no1` (stereo not drawn): the cytotoxicity at 70.5 h was -16.2%.

Take `COc1ccc(OC)c(C2CCN(C(=O)C3CCS(=O)(=O)CC3)C2)c1` (stereo not drawn): the cytotoxicity at 70.5 h was -7.16%.

For the compound `O=C(N[C@H]1COC[C@@H]1N1CCCC1)c1csc(-c2cccs2)n1`, the cytotoxicity at 70.5 h was -10.9%.

In the case of `Cn1ccc(C2CCCCN2C(=O)c2cccc(Cn3cccn3)c2)n1` (stereo not drawn), the cytotoxicity at 70.5 h came out at 8.89%.

On to `COc1ncc(-c2c(C#N)c(N)nc3c2CCc2[nH]ccc2-3)cn1`, for which the cytotoxicity at 70.5 h was -4.69%.

With `COC1CCCN(c2nc(C)nc3c2CCN(Cc2ccco2)CC3)C1` (stereo not drawn), the cytotoxicity at 70.5 h was 8.06%.

Consider `NC(=O)c1csc(N2CCCC(c3n[nH]c(=O)n3-c3ccccc3)C2)n1` (stereo not drawn), for which the cytotoxicity at 70.5 h was -6.33%.

As to `Cc1nccn1Cc1nnc(C2CCCN(Cc3ccncc3)C2)n1C` (stereo not drawn), the cytotoxicity at 70.5 h is -17.2%.

Regarding `CCC(NC(=O)c1cnc(N(C)C)nc1C)c1ccc(S(C)(=O)=O)cc1` (stereo not drawn), the cytotoxicity at 70.5 h is -8.61%.

For `Cc1ccc(C)c2c(O)cc(CNCc3ccc(S(N)(=O)=O)cc3)nc12`, the cytotoxicity at 70.5 h is -4.39%.
